Consider seven molecules from paper PMC3794927, “A Novel Antidiabetic Drug, Fasiglifam/TAK-875, Acts as an Ago-Allosteric Modulator of FFAR1” (PLoS ONE, 2013).

The subject of data set [1] is FFAR1 H137A and L186A mutants. The data set is described as follows: Ca2+ influx assay, FFAR1 point mutants in transfected HEK293T cells. The class given is cell-based. As to conditions: for change of EC50 in mutants versus wild-type: range over fasiglifam and GW9508 and both mutants. Here is the method: (§1) FLAG-tagged FFAR1 was constructed using a two-step procedure. Initially, untagged FFAR1-pcDNA3.1 was amplified using the forward primer ([…]) and the reverse primer ([…]) to insert a FLAG epitope at the N terminus of the receptor. Following this, the polymerase chain reaction (PCR) product was purified and ligated into a pcDNA3.1 vector. Mutations were made using the QuikChange Site-Directed Mutagenesis Kit (Stratagene) and verified by sequencing.
(§2) For stable CHO cell lines, cells were seeded in black-walled clear-bottomed 96-well cell culture plates (Costar) and incubated overnight in 5% CO2 at 37°C. Otherwise, HEK293T cells were transiently transfected with expression plasmids using Trans-IT (Mirus) or Lipofectamine 2000, followed by plating in poly-D-lysine-coated black clear 96-well plates (BD Falcon) and incubated for 2 days. These cells were then incubated at 37°C for 1 h in HEPES-buffered Hank’s balanced salt solution (pH 7.4) containing 2.5 mM probenecid, 1% FBS, and 4 µM fluo-3 AM (Dojindo). Following this, the cells were washed four times with the solution without fluo-3 AM. Intracellular Ca^2+ concentrations were measured before and after adding samples using FLIPR (Molecular Devices). Assays were performed in the absence of bovine serum albumin (BSA). EC50, 95% confidence interval and Emax values for each curve were calculated by data analysis using 4-parameter logistic equation in Prism 5 software (GraphPad Software).

Data set [2] concerns FFAR1 R183A and R258A mutants. The data set is described as above. It counts as cell-based. On the procedure:
as §1, §2

In data set [3] the test system is FFAR1 Y91A and N244A mutants. The data set is described as above. It counts as cell-based. On the procedure: as §1, §2
Data set [4] deals with N-STZ-1.5 rats. Put plainly: Oral glucose tolerance test in diabetic N-STZ-1.5 rats. The class given is in vivo, rat. Here is the method:
Blood samples were collected from the tail vein before drug administration (pre), before glucose load (time 0), and 10, 30, 60, and 120 min after the glucose load. Plasma glucose and FFA levels were measured using Autoanalyzer 7080 (Hitachi, Japan), and insulin levels were measured using the Rat Insulin ELISA Kit (Morinaga, Japan). All procedures were conducted according to the Experimental Animal Care and Use Committee of Takeda Pharmaceutical Company Limited.

The target of data set [5] is T1, hFFAR1 (Homo sapiens, UniProt O14842).
T1 construct: expressed in transfected cells
T1 sequence (O14842 whole entry): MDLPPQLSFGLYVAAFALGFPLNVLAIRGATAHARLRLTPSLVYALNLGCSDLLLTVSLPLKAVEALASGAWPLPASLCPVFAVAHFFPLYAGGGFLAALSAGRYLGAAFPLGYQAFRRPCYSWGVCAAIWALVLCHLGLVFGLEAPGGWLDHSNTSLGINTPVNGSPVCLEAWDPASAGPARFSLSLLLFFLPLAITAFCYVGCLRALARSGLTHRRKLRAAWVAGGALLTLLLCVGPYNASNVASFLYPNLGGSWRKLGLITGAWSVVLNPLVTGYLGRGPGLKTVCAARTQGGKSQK
Put plainly: Ca2+ mobilization assay (FLIPR) in CHO cells stably expressing hFFAR1. It counts as cell-based. The settings on record: for agonistic activity, Ca2+ influx: hFFAR1/CHO cells (clone #104). On the procedure: Cells were selected by culturing in nucleotide-free alpha-minimum essential medium (α-MEM; Invitrogen) supplemented with 10% dialyzed and heat-inactivated fetal bovine serum (FBS; Invitrogen), 100 IU/mL penicillin, and 100 µg/mL streptomycin (Invitrogen). […] The murine pancreatic β cell line MIN6 cells were kindly provided by Dr. Miyazaki. […] Cells were cultured in a humidified atmosphere containing 5% CO2/95% air at 37°C.
as §2, with “(BSA).” for “(BSA). EC50, 95% confidence interval and Emax values for each curve were calculated by data analysis using 4-parameter logistic equation in Prism 5 software (GraphPad Software).”
For orientation: Calcium flux is commonly read through the fluorescence of an indicator in the cells.

Data set [6] has as its target T2, mFFAR1 (Mus musculus, UniProt Q76JU9).
T2 construct: expressed in transfected cells
The data set is described as follows: Ca2+ mobilization assay (FLIPR) in CHO cells stably expressing mFFAR1. The class given is cell-based. On the procedure: To establish CHO cells (dhfr−) stably expressing hFFAR1 or mFFAR1, CHO/dhfr− (ATCC catalog # CRL-9096) cells were transfected with hFFAR1-pAKKO-111H or mFFAR1-pAKKO-111H plasmid using Lipofectamine 2000 (Invitrogen). Cells were selected by culturing in nucleotide-free alpha-minimum essential medium (α-MEM; Invitrogen) supplemented with 10% dialyzed and heat-inactivated fetal bovine serum (FBS; Invitrogen), 100 IU/mL penicillin, and 100 µg/mL streptomycin (Invitrogen). HEK293T (ATCC catalog # CRL-11268) cells were cultured in Dulbecco’s modified Eagle’s medium (DMEM, Invitrogen) supplemented with 10% heat-inactivated FBS, 100 IU/mL penicillin, and 100 µg/mL streptomycin. The murine pancreatic β cell line MIN6 cells were kindly provided by Dr. Miyazaki. MIN6 cells were grown in DMEM containing 10% heat-inactivated FBS, 100 IU/mL penicillin, 100 µg/mL streptomycin, and 55 µmol/L 2-mercaptoethanol (Invitrogen). Cells were cultured in a humidified atmosphere containing 5% CO2/95% air at 37°C.
For stable CHO cell lines, cells were seeded in black-walled clear-bottomed 96-well cell culture plates (Costar) and incubated overnight in 5% CO2 at 37°C. […] Intracellular Ca^2+ concentrations were measured before and after adding samples using FLIPR (Molecular Devices). […]

The target in data set [7] is T1, hFFAR1. Put plainly: Ca2+ influx in HEK293T cells transiently transfected with varying amounts of hFFAR1 plasmid. The class given is cell-based. The settings on record: 100 ng to 1 ng hFFAR1 plasmid, compared with γ-LA. On the procedure: as §2
Supplementary file pone.0076280.s002.tif: Figure S2 Relative efficacy of fasiglifam is affected by FFAR1/GPR40 expression levels in transient HEK293T cells. Relative Ca^2+ influx activities of fasiglifam and γ-linolenic acid (γ-LA) were measured in HEK293T cells transiently transfected with 100 ng (A), 30 ng (B), 10 ng (C), 3 ng (D), and 1 ng (E) of hFFAR1 expression plasmids. Error bars indicate s.e.m. […]

The subject of data set [8] is MIN6 cells. Put plainly: Insulin secretion assay in MIN6 cells. It counts as cell-based, mouse. The settings on record: 16 mM glucose. Here is the method:
MIN6 cells were seeded at a density of 6 × 10^4 cells/well in 96-well plates (BD Falcon), and cells were cultured in the growth medium described above for 2 days before experiments. After discarding the medium, cells were preincubated for 2 h at 37°C with 200 µL of Krebs-Ringer bicarbonate–HEPES (KRBH) buffer (116 mmol/L NaCl, 4.7 mmol/L KCl, 1.17 mmol/L KH2PO4, 1.17 mmol/L MgSO4, 25 mmol/L NaHCO3, 2.52 mmol/L CaCl2, and 24 mmol/L HEPES) containing 0.2% BSA and 1 mmol/L glucose. After discarding the preincubation buffer, KRBH containing 0.2% BSA, 16 mmol/L glucose, and stimulators as shown was added and the plate was incubated for 2 h at 37°C. After incubation, supernatants from each well were collected and secreted insulin concentrations were measured using alphaLISA (PerkinElmer) according to the manufacturer’s instruction.

Data set [9] concerns wild-type mouse islets. Put plainly: Insulin secretion in wild-type mouse islets. It counts as cell-based. As to conditions: 16 mM glucose.
Data set [10] has as its system FFAR1-knockout mouse islets. The data set is described as follows: Insulin secretion in FFAR1-knockout mouse islets. As to conditions: 16 mM glucose. The class given is cell-based.
The subject of data set [11] is rat insulinoma cells. Set-up: method as in PMID 21752941. As to conditions: prolonged exposure to fasiglifam alone; cited from earlier work.
The subject of data set [12] is MIN6 cells. Put plainly: Caspase 3/7 activity in MIN6 cells (lipotoxicity). As to conditions: 72-h exposure, palmitic acid 0.25–1 mM.
Protocol: (§3) Caspase 3/7 activity in MIN6 cells was measured according to a previously described method (8). In brief, MIN6 cells were seeded at a density of 2 × 10^4 cells/well in a 96-well black clear plate (CORNING) and cultured overnight. After discarding the medium, 1% BSA, palmitic acid–BSA conjugate (0.25, 0.5, and 1 mM) or γ-LA–BSA conjugate (0.25, 0.5, and 1 mM) in combination with 0.1% DMSO or fasiglifam (0.1, 1, and 10 µM) were added to the plates and cultured for 72 h. After incubation, caspase 3/7 activity was measured using the Apo-one Homogeneous Caspase 3/7 assay (Promega) according to the manufacturers’ instructions. Fluorescent intensity was measured at excitation and emission wavelengths of 485 nm and 535 nm, respectively (Wallac 1420 ARVO SX Multilabel Counter; PerkinElmer).
The test system of data set [13] is MIN6 cells. As to conditions: mouse, 72 h, 1 mM.
Protocol: as §3

Read-outs that look alike come from different tables or passages of the source.

T2 sequence (Q76JU9 whole entry): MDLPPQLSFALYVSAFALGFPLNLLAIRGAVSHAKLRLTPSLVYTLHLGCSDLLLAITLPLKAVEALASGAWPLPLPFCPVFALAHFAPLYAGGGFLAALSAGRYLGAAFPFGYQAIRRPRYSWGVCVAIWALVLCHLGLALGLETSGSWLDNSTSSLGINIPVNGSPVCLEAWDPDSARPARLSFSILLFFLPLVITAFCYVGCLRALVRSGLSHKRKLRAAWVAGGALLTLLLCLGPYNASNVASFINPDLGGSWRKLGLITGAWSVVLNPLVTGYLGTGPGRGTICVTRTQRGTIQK

Regarding `O=C(O)CCc1ccc(NCc2cccc(Oc3ccccc3)c2)cc1` [GW9508], the “change of EC50 in mutants versus wild-type” value in data set [1] is reported as 7.7- to 130 fold. The “Ca2+ influx response of mutants” value in data set [2] is “almost completely unresponsive”. Besides, the “effect of mutations on potency” value in data set [3] was “more drastic”.
As to `Cc1cnc(C(=O)O)c[n+]1[O-]` [acipimox], the “plasma FFA levels” value in data set [4] (acipimox 30 mg/kg oral, N-STZ-1.5 rats, OGTT) is listed as “rapid decrease”. For the same molecule, the glucose tolerance entry in [4] (acipimox alone 30 mg/kg, OGTT, N-STZ-1.5 rats) is “improved glucose tolerance”. Besides, in [4] (diabetic rats, acipimox), the “plasma FFA level after reduction with acipimox” value is “approximately 0.2 mEq/L”.
Take `Cc1cc(OCCCS(C)(=O)=O)cc(C)c1-c1cccc(COc2ccc3c(c2)OC[C@H]3CC(=O)O)c1.Cc1cc(OCCCS(C)(=O)=O)cc(C)c1-c1cccc(COc2ccc3c(c2)OC[C@H]3CC(=O)O)c1.O` [fasiglifam, [(3S)-6-({2′,6′-dimethyl-4′-[3-(methylsulfonyl)propoxy]biphenyl-3-yl}methoxy)-2,3-dihydro-1-benzofuran-3-yl] acetic acid hemihydrate]: in [5], the “agonistic activity, Ca2+ influx” value is listed as “higher potency than FFAs”. Further, the “effect of simultaneous γ-LA on fasiglifam Ca2+ activity” value in data set [5] (hFFAR1/CHO clone #2, increasing doses of γ-LA) is “remarkable potentiation”. In addition, in [6], the “Emax, Ca2+ mobilization” value is “lower Emax than γ-LA”. For the same molecule, the “maximal response as amount of transfection plasmid decreased” value in data set [7] is recorded as “dramatically decreased”. For the same molecule, the “change of EC50 in mutants versus wild-type” value in data set [1] is reported as 7.7- to 130 fold. The “Ca2+ influx response of mutants” value in data set [2] is “almost unresponsive”. Also, the “effect of mutations on potency” value in data set [3] is “more drastic”. In data set [8] (γ-LA 100 µM), the “increase in the maximal response of fasiglifam (insulin secretion) by γ-LA” value was 1.5–2 fold. The “effect of γ-LA on insulinotropic activity of fasiglifam” value in data set [9] is “dramatic improvement”. Besides, the “insulinotropic effect in FFAR1-knockout islets” value in [10] is given as “completely abolished”. The “insulinotropic action in acipimox-treated rats” value in data set [4] (fasiglifam 10 mg/kg + acipimox 30 mg/kg, OGTT) is on record as “significantly suppressed”. Moreover, in data set [4] (fasiglifam alone 10 mg/kg oral, at 0, 10, and 30 min of OGTT), the “plasma insulin (insulinotropic effect) versus vehicle” value is on record as “significant insulinotropic effects”. The effect on apoptosis result in data set [11] is “no effect on apoptosis”.
For `CCC1=C(C)CN(C(=O)NCCc2ccc(S(=O)(=O)NC(=O)N[C@H]3CC[C@H](C)CC3)cc2)C1=O` [glimepiride], the “insulinotropic effect in FFAR1-knockout islets” value in data set [10] was “not affected”.
Turning to `CCCCCCCCCCCCCC(=O)O` [myristic acid], the “agonistic activity, Ca2+ influx” value in data set [5] is on record as “partial activities”.
With `CCCCCCCCCCCCCCCC(=O)O` [palmitic acid], the “agonistic activity, Ca2+ influx” value in [5] is “partial activities”. In addition, in [12], the “caspase 3/7 activity” value is on record as “increased caspase 3/7 activity in a dose-dependent manner”.
In general, EC50 refers to the concentration at which the effect is half-maximal. Regarding `CCCCC/C=C\C/C=C\C/C=C\CCCCC(=O)O` [γ-LA, γ-linolenic acid], in data set [5], the “agonistic activity, Ca2+ influx” value is “full agonistic activity”. In addition, in data set [5] (hFFAR1/CHO clone #2, without fasiglifam, read-out: EC50 of γ-LA response (Ca2+ influx)), the EC50 worked out at 5.39 µM. Further, in [1], the “activity in mutants versus wild-type” value is “remained almost unchanged”. Besides, in [2], the “Ca2+ influx response of mutants” value was “relatively less affected”. For the same molecule, the “insulin secretion, compound alone” value in [8] (0.2% BSA) was “could not significantly potentiate insulin secretion”. Also, in data set [13], the “caspase 3/7 activity” value was “significant enhancements of caspase 3/7 activity”.
